These results are taken from publication PMC9014845 (Clinical cancer research : an official journal of the …, 2019).

Data set [1] in a line: Allometric scaling of single dose PK data from mice, rats and monkeys. Also noted: species or system human. The conditions noted are these: allometric scaling model of single dose PK data from mice, rats, monkeys.
A further data set can be described thus: Plasma pharmacokinetics. Type of data set: in vivo, human.
The subject of data set [2] is tumor models with FGFR alterations. The settings on record: several tumor models with FGFR alterations in vivo; cited from earlier work.
The next data set concerns FGFRs 1–3. The settings on record: in vitro, ATP-competitive; cited from earlier work.
The subject of a further data set is FGFR. The experiment in a line: Blood PD biomarkers. The class given is in vivo, human.

In the case of Debio 1347, in data set [1], the “Predicted plasma half-life in humans” value was 9 h. Besides, the “Mean relative oral bioavailability of tablets versus capsules” value in the data set “Plasma pharmacokinetics” (40 mg single dose, cross-over, 90% CI 0.73–1.05, n=9) is 0.88. Moreover, the “Time to steady-state (Ctrough)” value in “Plasma pharmacokinetics” (majority of patients, once-daily dosing) was “during the first week of treatment”. Also, in the data set “Plasma pharmacokinetics” (post-first dose, majority of patients), the “Time to detection in plasma” value is not above 30 min. For the same substance, the Median tmax in “Plasma pharmacokinetics” (post-first oral dose, range 1.5–24) is 3 h. Further, in the data set “Plasma pharmacokinetics” (post-first oral dose, range 4.7–20.6), the “Plasma half-life (mean)” value is 11.5 h. In addition, in “Plasma pharmacokinetics” (range 2.7–13.9), the “Mean apparent oral clearance” value came out at 7.0 L/h. Also, the “Efficacy in tumor models” value in data set [2] is “effective”. Also, the “Inhibitory concentration for FGFRs 1–3” value in the data set on FGFRs 1–3 is listed as “low nanomolar”. Besides, the “Hyperphosphatemia versus plasma exposure” value in the data set with FGFR (maximum serum phosphate in cycle 1 versus plasma trough levels) is “correlated with Debio 1347 exposure”. Moreover, the “Dose at which serum phosphate confirmed target engagement” value in the data set on FGFR (oral once daily) is recorded as not below 60 mg/day. The “Ctrough at which serum phosphate increases of 50% from baseline were achieved” value in the data set with FGFR (seen in about half of patients at 60 mg/day, majority at ≥80 mg/day) is on record as “about 400 ng/mL”. In addition, the “Plasma FGF23 change” value in the data set with FGFR (steady-state, without clear relationship to the dose) was “overall increase”.
